How the values were obtained:
[1] = system: KB-C2 cells (ABCB1); assay: [^3H]-paclitaxel efflux (Example 1); type: cell-based, human; settings: 1 h
Method: The intracellular accumulation of [^3H]-paclitaxel was measured as follows. […] Intracellular paclitaxel accumulation was measured by incubating cells with 0.1 μM [^3H]-paclitaxel for 2 h in the presence or absence of the reversal agents at 37° C. The cells were washed three times with ice-cold PBS, then suspended in fresh medium with or without reversal agents at 37° C. Aliquots of the extracellular medium (40 μl) were collected at various time points (0, 60, 120 min), and finally the cells were collected and lysed in 10 mM lysis buffer (pH 7.4, containing 1% Triton X-100 and 0.2% SDS). Each sample was placed in scintillation fluid and the radioactivity was measured in a Packard TRI-CARB1 1900CA liquid scintillation analyzer from Packard Instrument Company, Inc. (Downers Grove, Ill.).

[2] = target: T1, ABCB1 (Homo sapiens, UniProt P08183); assay: Vi-sensitive ATPase assay of ABCB1 (Example 1); type: biochemical; settings: ABCB1 membrane vesicles; read-out: concentration required for 50% stimulation of ATPase activity
T1 construct: made in house; host or cells: High Five insect cells (membrane vesicles / crude membranes)
T1 sequence (P08183 whole entry): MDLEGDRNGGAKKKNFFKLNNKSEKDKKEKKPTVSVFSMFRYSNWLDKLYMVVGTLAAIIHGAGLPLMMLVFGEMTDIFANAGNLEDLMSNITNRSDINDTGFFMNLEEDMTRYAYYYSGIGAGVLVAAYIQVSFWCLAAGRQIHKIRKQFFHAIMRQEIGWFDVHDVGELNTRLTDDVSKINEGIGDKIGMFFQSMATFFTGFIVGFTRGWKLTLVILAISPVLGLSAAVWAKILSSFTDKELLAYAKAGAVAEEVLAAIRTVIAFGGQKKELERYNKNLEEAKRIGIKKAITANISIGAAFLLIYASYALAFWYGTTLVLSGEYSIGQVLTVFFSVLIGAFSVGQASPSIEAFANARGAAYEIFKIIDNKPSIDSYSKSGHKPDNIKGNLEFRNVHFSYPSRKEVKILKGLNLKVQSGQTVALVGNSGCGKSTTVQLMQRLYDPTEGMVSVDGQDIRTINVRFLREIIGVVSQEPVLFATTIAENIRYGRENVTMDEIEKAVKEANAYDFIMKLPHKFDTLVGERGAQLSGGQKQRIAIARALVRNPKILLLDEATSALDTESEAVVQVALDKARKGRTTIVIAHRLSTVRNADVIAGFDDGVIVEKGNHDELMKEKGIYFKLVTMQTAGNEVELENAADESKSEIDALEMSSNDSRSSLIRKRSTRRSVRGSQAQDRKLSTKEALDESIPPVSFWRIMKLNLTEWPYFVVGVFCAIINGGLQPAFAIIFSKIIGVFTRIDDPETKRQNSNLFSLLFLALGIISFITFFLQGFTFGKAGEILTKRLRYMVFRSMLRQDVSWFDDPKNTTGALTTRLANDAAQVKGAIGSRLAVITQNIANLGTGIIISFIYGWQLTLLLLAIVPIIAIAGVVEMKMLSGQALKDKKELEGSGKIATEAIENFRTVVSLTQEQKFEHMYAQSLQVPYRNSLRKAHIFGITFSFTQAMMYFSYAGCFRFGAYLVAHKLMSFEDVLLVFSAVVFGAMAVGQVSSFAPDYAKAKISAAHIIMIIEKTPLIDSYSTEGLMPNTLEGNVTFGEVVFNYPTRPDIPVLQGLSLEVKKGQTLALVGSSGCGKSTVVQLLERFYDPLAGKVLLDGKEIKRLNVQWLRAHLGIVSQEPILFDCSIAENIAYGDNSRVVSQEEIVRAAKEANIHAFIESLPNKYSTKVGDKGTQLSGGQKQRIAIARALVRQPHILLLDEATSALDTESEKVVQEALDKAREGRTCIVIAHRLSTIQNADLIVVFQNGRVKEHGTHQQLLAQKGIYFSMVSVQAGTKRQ
Method: The Vi-sensitive ATPase activity of ABCB1 in membrane vesicles of High Five™ insect cells was measured as follows. The membrane vesicles ([…]) were incubated in ATPase assay buffer (50 mM MES [pH 6.8], 50 mM KCl, 5 mM sodium azide, 2 mM EGTA, 2 mM dithiothreitol, 1 mM ouabain, and 10 mM MgCl2) with or without 0.3 mM orthovanadate (freshly prepared) at 37° C. for 5 min, then incubated with different concentrations of drug at 37° C. for 3 min. The ATPase reaction was started by the addition of 5 mM ATP, and the total volume was 0.1 ml. After incubation at 37° C. for 20 min, the reactions were stopped by the addition of 0.1 ml of 5% SDS solution and vortexed and kept at room temperature. The liberated Pi was measured as described in Ambudkar et al., supra.

[3] = system: HEK/MRP1 (ABCC1); assay: MTT cytotoxicity/reversal assay (Example 1); type: cell-based; settings: +10 μM reversal agent
Method: The KB-C2 and KB-3-1 were kindly provided by Dr. Akiyama (Kagoshima University, Japan). […] Similarly, the HEK/MRP1 (ABCC1) and HEK/ABCB1 cells were generated by transfecting the HEK293 cells with either the MRP1 expression vector or the ABCB1 expression vector. All of the cell lines were grown in Dulbecco's modified Eagle's medium (DMEM) supplemented with 10% bovine serum, 100 units/ml penicillin, and […] streptomycin in a humidified incubator containing 5% CO2 at 37° C.
(§1) The MTT assay was used to assess cytotoxicity. The cultured cells were harvested with trypsin and resuspended in a final concentration of 4×10^3 cells/well for KB-3-1; 7.5×10^3 cells/well for KB-C2; and 8×10^3 for all of the other cell lines used in this study. Cells were seeded evenly in 96-well multiplates. […] After 68 h of incubation, 20 μl of the MTT solution (4 mg/ml) was added to each well, and the plate was further incubated for 4 h at 37° C., allowing viable cells to convert the yellow-colored MTT into dark-blue formazan crystals. Subsequently, the medium was discarded, and 100 μl of DMSO was added into each well to dissolve the formazan crystals, generating purple color. The absorbance was determined at 570 nm by an OPSYS Microplate Reader from DYNEX Technologies, Inc. (Chantilly, Va.). […] The degree of the reversal of multidrug resistance (MDR) was calculated by dividing the IC50 of an anticancer drug, e.g., an antineoplastic or chemotherapeutic drug (agent, compound), in a cell type in the absence of a reversal agent by the IC50 of the anticancer drug in the same cell type in the presence of the reversal agent. The IC50 values were calculated from survival curves using the Bliss method.

[4] = target: T1, ABCB1; assay: Photoaffinity labeling with [^125I]-IAAP (Example 1); type: binding; settings: for IC50: ABCB1 membrane vesicles
Method: The photoaffinity labeling of ABCB1 with [^125I]-IAAP was performed as described in Sauna et al. (2000) Proc. Natl. Acad. Sci. USA 97:2515-20. The membrane vesicles from High Five™ insect cells expressing ABCB1 (50 μg of protein) were incubated at room temperature with different concentrations of drugs in the ATPase assay buffer with [^125I]-IAAP (7 nM) for 5 min under subdued light. […] Subsequently, the samples were run in a 7% Tris-acetate NuPAGE gel on SDS-PAGE; and the gels were dried and exposed to Bio-Max MR film (Eastman Kodak Co., Rochester, N.Y.) at −70° C. for 8-12 h. The radioactivity incorporated into the ABCB1 band was quantified using the STORM 860 PhosphorImager system and ImageQuaNT (Molecular Dynamics, CA).

[5] = system: ABCB1 expression in KB-C2 cells; assay: Western blot and immunofluorescence of ABCB1; type: cell-based, human; settings: for protein level of ABCB1 (Western blot): 10 μM, 36 and 72 h; for expression of ABCB1 in the membrane (immunofluorescence): 72 h
Method: Following incubation, the cells were harvested and rinsed twice with ice-cold PBS, and total cell lysates were collected with cell lysis buffer (1×PBS, 1% Nonidet P-40, 0.5% sodium deoxycholate, 0.1% SDS, 100 μg/ml phenylmethylsulfonyl fluoride, 10 μg/ml aprotinin, 10 μg/ml leupeptin) for 30 min with gentle rocking, and clarified by centrifugation at 12,000 rpm for 10 min at 4° C. Equal amounts (100 μg of protein) of cell lysates were resolved by sodium dodecyl sulfate polyacrylamide gel electrophoresis (SDS-PAGE) and electrophoretically transferred onto polyvinylidene fluoride (PVDF) membranes. After incubation in a blocking solution containing 5% nonfat milk in TBST buffer (10 mM Tris-HCL (pH 8.0), 150 mM NaCl, and 0.1% Tween 20) for 1 h at room temperature, membranes were immunoblotted overnight with primary monoclonal antibodies C219 (1:200) against ABCB1, or 14C10 (1:200) against GAPDH, at 4° C. Subsequently, the membranes were washed three times for 15 min with TBST buffer and incubated at room temperature for 2 h with HRP-conjugated secondary antibody at 1:1000 dilutions. The membranes underwent three additional washes for 15 min with TBST buffer and the protein-antibody complexes were visualized by the enhanced PHOTOTOPE® HRP Detection Kit (Cell Signaling Technology, Inc.) and exposed to Kodak medical X-ray processor (Eastman Kodak Co., Rochester, N.Y.). […] Propidium iodide was used for nuclear staining.

[6] = system: any cell lines tested; assay: MTT assay, vardenafil or tadalafil alone; type: cell-based; settings: concentrations of up to 20 μM
Method: as §1

Row | SMILES | accumulated paclitaxel effluxed ([1]; absence of vardenafil) | EC50 [2] | fold reversal, vincristine [3] | IC50 [4] | protein level of ABCB1 (Western blot) [5] | expression of ABCB1 in the membrane (immunofluorescence) [5] | growth inhibition by the PDE5 inhibitor alone [6] | accumulated paclitaxel retained inside cells ([1]; 10 μM) | inhibition at 5 min, 10 µM ([4]; pH 6.8, probe [125I]-IAAP (7 nM), 10 μM, read-out: inhibition of [^125I]-IAAP photolabeling)
1 | CC(=O)O[C@H]1C(=O)[C@@]2(C)[C@H]([C@H](OC(=O)c3ccccc3)[C@]3(O)C[C@H](OC(=O)[C@H](O)[C@@H](NC(=O)c4ccccc4)c4ccccc4)C(C)=C1C3(C)C)[C@]1(OC(C)=O)CO[C@@H]1C[C@@H]2O [Paclitaxel, paclitaxel] | 70% | – | – | – | – | – | – | – | –
2 | CN1CC(=O)N2[C@H](c3ccc4c(c3)OCO4)c3[nH]c4ccccc4c3C[C@@H]2C1=O [Tadalafil, tadalafil] | – | > 25000 nM | (1.03) | > 50000 nM | not significantly altered | neither vardenafil nor tadalafil altered the expression of ABCB1 in the membrane | neither vardenafil nor tadalafil inhibited the growth of any cell lines tested | – | –
3 | CCCc1nc(C)c2c(=O)[nH]c(-c3cc(S(=O)(=O)N4CCN(CC)CC4)ccc3OCC)nn12 [Vardenafil, vardenafil] | – | 2690 ± 720 nM | (1.07) | 690 nM | not significantly altered | neither vardenafil nor tadalafil altered the expression of ABCB1 in the membrane | neither vardenafil nor tadalafil inhibited the growth of any cell lines tested | 75% | 90%
